{"source": "paper PMC12770474", "about": "(Nature Communications, 2025)", "key": {"OCs formed by BMMs": {"test_system": "OCs formed by BMMs", "assay": "TRAP staining of RANKL-induced OCs formed by BMMs", "assay_type": "cell-based, mice", "conditions": "TRAP staining day 6, n = 5"}, "OCs": {"test_system": "OCs", "assay": "Tunel staining of OCs apoptosis", "assay_type": "cell-based, mice", "conditions": "BGD 64 μM or ALD 500 μM, 24 h, n = 3"}, "OVX mice": {"test_system": "OVX mice", "conditions": "mouse, in vivo"}, "CTSK": {"target": "T1, CTSK (Homo sapiens, UniProt P43235)", "T1 sequence (P43235 115-329)": "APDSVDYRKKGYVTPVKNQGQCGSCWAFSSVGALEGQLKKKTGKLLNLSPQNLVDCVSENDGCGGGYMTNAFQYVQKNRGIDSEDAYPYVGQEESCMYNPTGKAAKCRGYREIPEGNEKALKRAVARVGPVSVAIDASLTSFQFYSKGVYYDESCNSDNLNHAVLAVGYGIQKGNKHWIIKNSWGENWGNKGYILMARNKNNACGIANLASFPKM", "assay": "Zeta potential of the enzymolysis reaction mixture with and without CTSK", "assay_type": "physicochemical", "conditions": "64 μM peptide"}, "BMMs": {"test_system": "BMMs", "assay": "CCK-8 cytotoxicity assay, BMMs", "assay_type": "cell-based, mice", "conditions": "CCK-8, 24 h, different concentrations, n = 3"}, "[1]": {"assay": "TEM morphology of peptide assemblies in PBS", "conditions": "64 μM in PBS pH 7.4, 8 h incubation"}, "Dynamic light scattering": {"assay": "Dynamic light scattering", "assay_type": "physicochemical", "conditions": "self-assembled nanoparticles, aqueous solution pH 7.4, 64 μM, Zetasizer"}, "[2]": {"assay": "Zeta potential of peptide assemblies", "assay_type": "physicochemical", "conditions": "self-assembled peptide, 64 μM, Zetasizer, n = 3"}}}
{"molecule": "CCCN1CCN(c2ccc(C(=O)NC3(C(=O)NCC#N)CCCCC3)cc2)CC1", "note": "[Balicatib, reference compound]", "values": [{"measurement": "OCs formation, inhibitor alone", "setting": "OCs formed by BMMs; 20 nM on day 5 of RANKL induction", "value": "did not inhibit OCs formation"}]}
{"molecule": "NCCCC(O)(P(=O)(O)O)P(=O)(O)O", "note": "[ALD, Alendronate]", "values": [{"measurement": "cells undergoing apoptosis (Tunel staining)", "setting": "OCs", "value": "a large number of OCs and pre-OCs underwent apoptosis"}, {"measurement": "micro-CT bone parameters (BMD, BV/TV, Tb.Th, Tb.N, Tb.Sp) vs OVX", "setting": "OVX mice", "value": "significantly improved"}]}
{"molecule": "Bip-FFWKYK-GHPAAPQ-DDDDDD [BAD]", "values": [{"measurement": "zeta potential of reaction mixture, presence of CTSK / after cleavage", "setting": "CTSK; MES buffer pH 5.5, with CTSK 800 ng/ml", "value": "−9.5", "unit": "mV"}, {"measurement": "zeta potential of reaction mixture, absence of CTSK / before cleavage", "setting": "CTSK; MES buffer pH 5.5, without CTSK", "value": "−14.3", "unit": "mV"}, {"measurement": "cytotoxicity toward BMMs", "setting": "BMMs", "value": "consistent cytocompatibility"}, {"measurement": "number of TRAP-positive OCs vs RANKL control", "setting": "OCs formed by BMMs; peptide (64 μM) added on day 5 of RANKL induction", "value": "no significant effect"}, {"measurement": "morphology of assemblies (TEM)", "setting": "[1]", "value": "dispersed, nearly spherical nanoparticles"}, {"measurement": "average size of nanoparticles (DLS)", "setting": "Dynamic light scattering", "value": 36.6, "unit": "nm"}, {"measurement": "Zeta potential", "setting": "[2]", "value": "−20.8", "unit": "mV"}]}
{"molecule": "Bip-FFWKYK-GHPGGPQ-NNNNNN [BGN]", "values": [{"measurement": "cytotoxicity toward BMMs", "setting": "BMMs", "value": "biocompatible"}, {"measurement": "Zeta potential", "setting": "[2]", "value": "−26.4", "unit": "mV"}]}
{"molecule": "Bip-FFWKYK-GHPGGPQ-KKKKKK [BGK]", "values": [{"measurement": "cytotoxicity toward BMMs", "setting": "BMMs", "value": "exhibited cytotoxicity at 32 μM"}, {"measurement": "Zeta potential", "setting": "[2]", "value": "+11.2 mV"}]}
